One molecule from patent US9458508B2, “Methods and compositions for the diagnosis and treatment of cancer resistant to anaplastic lymphoma kinase (ALK) kinase inhibitors” (St. Jude Children's Research Hospital, priority 2010, dated 2016) can be followed below.

Usually IC50 stands for the concentration that gives 50% inhibition.

The structures appear in SMILES notation.

For this test, the system named is parental BaF3 cells. Nature of the test: cells. As to conditions: Mus musculus, BaF3, 72 h.

Procedure: Parental BaF3 cells (“BaF3”) were also tested as a normal, non-ALK-dependent cell control.

`C[C@@H](Oc1cc(-c2cnn(C3CCNCC3)c2)cnc1N)c1c(Cl)ccc(F)c1Cl` [PF-02341066]: the concentration for half-maximal inhibition (IC50) was determined as 1460 nM.
